Results from the supplement of paper PMC4862054.

How the values were obtained:
Assay in all cases: normalised response (% of control), CellTiter-Glo; higher = more viable cells (100 = DMSO, 0 = benzethonium chloride kill control)
Details in all cases: incubation time: 72 h
MDA-MB-436 = tested on: MDA-MB-436
Procedure, shortened: (§1)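 Plates were normalised with 0.1 % DMSO as 100 and a positive kill control as 0. Breast cancer cell lines in 20 µl suspension had been seeded into 384-well plates with compound at 5 concentrations in 10-fold steps over a compound-specific 10,000-fold range, incubated 72 h, and read for CellTox Green fluorescence (485/520 nm) followed by CellTiter-Glo luminescence. Each value is the normalised signal at a single concentration.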

MDA-MB-453 = tested on: MDA-MB-453
Procedure, shortened: as §1

CAL-85-1 = tested on: CAL-85-1
Procedure, shortened: as §1

DU-4475 = tested on: DU-4475
Procedure, shortened: as §1

HDQ-P1 = tested on: HDQ-P1
Procedure, shortened: as §1

CAL-148 = tested on: CAL-148
Procedure, shortened: as §1

BT-549 = tested on: BT-549
Procedure, shortened: as §1

HCC1599 = tested on: HCC1599
Procedure, shortened: as §1

BT-474 = tested on: BT-474
Procedure, shortened: as §1

CAL-51 = tested on: CAL-51
Procedure, shortened: as §1

HCC1937 = tested on: HCC1937
Procedure, shortened: as §1

Hs578T = tested on: Hs578T
Procedure, shortened: as §1

MCF-10A = tested on: MCF-10A
Procedure, shortened: as §1

CAL-120 = tested on: CAL-120
Procedure, shortened: as §1

MDA-MB-231 = tested on: MDA-MB-231
Procedure, shortened: as §1

MFM-223 = tested on: MFM-223
Procedure, shortened: as §1

HCC1143 = tested on: HCC1143
Procedure, shortened: as §1

MDA-MB-468 = tested on: MDA-MB-468
Procedure, shortened: as §1

SK-BR-3 = tested on: SK-BR-3
Procedure, shortened: as §1

Row | Compound | normalised response (MDA-MB-436) [%] | normalised response (MDA-MB-453) [%] | normalised response (CAL-85-1) [%] | normalised response (DU-4475) [%] | normalised response (HDQ-P1) [%] | normalised response (CAL-148) [%] | normalised response (BT-549) [%] | normalised response (HCC1599) [%] | normalised response (BT-474) [%] | normalised response (CAL-51) [%] | normalised response (HCC1937) [%] | normalised response (Hs578T) [%] | normalised response (MCF-10A) [%] | normalised response (CAL-120) [%] | normalised response (MDA-MB-231) [%] | normalised response (MFM-223) [%] | normalised response (HCC1143) [%] | normalised response (MDA-MB-468) [%] | normalised response (SK-BR-3) [%]
1 | CCc1cncnc1N1CCN(Cc2nc3ccc(C(F)(F)F)cc3[nH]2)CC1 (1 nM) | 107 | 115 | 97.3 | 103 | 105 | 106 | 108 | 114 | 107 | 125 | 95.5 | 101 | 106 | 101 | 105 | 103 | 99.5 | 109 | 110
2 | CC[C@@H]1C(=O)N(C)c2cnc(Nc3ccc(C(=O)NC4CCN(C)CC4)cc3OC)nc2N1C1CCCC1 [BI 2536] (0.1 nM) | 104 | 92.6 | 105 | 103 | 95.7 | 102 | 103 | 110 | 105 | 103 | 98.7 | 97.4 | 106 | 104 | 103 | 106 | 94.9 | 108 | 112
3 | CC[C@@H]1C(=O)N(C)c2cnc(Nc3ccc(C(=O)NC4CCN(C)CC4)cc3OC)nc2N1C1CCCC1 [BI 2536] (1 nM) | 100 | 84.6 | 100 | 107 | 97.8 | 112 | 98.2 | 108 | 101 | 133 | 94.6 | 96.7 | 102 | 97.2 | 101 | 96.5 | 100 | 92.6 | 97.2
4 | O=C(O)CCCCC(CCSCc1ccccc1)SCc1ccccc1 (centres undefined) [CPI-613] (1 nM) | 96.5 | 107 | 99.2 | 101 | 100 | 107 | 102 | 97.6 | 101 | 78.6 | 104 | 102 | 106 | 96.3 | 100 | 99.1 | 105 | 103 | 114
5 | O=C(O)CCCCC(CCSCc1ccccc1)SCc1ccccc1 (centres undefined) [CPI-613] (10 nM) | 105 | 105 | 97.8 | 104 | 102 | 103 | 89.8 | 118 | 105 | 95.5 | 99 | 96.6 | 112 | 98.7 | 96.2 | 105 | 108 | 101 | 109
6 | C=CC(=O)Nc1cc2c(Nc3ccc(F)c(Cl)c3)ncnc2cc1OCCCN1CCOCC1 [Canertinib] (1 nM) | 94.5 | 108 | 103 | 105 | 98.8 | 103 | 104 | 93.3 | 96.8 | 104 | 97.3 | 98.6 | 108 | 95.2 | 104 | 105 | 95.6 | 106 | 103
7 | C=CC(=O)Nc1cc2c(Nc3ccc(F)c(Cl)c3)ncnc2cc1OCCCN1CCOCC1 [Canertinib] (10 nM) | 99.2 | 99.1 | 99.6 | 107 | 82.4 | 102 | 95.6 | 93.8 | 106 | 84.3 | 89.5 | 103 | 76.6 | 91.7 | 106 | 103 | 99.8 | 96.3 | 91
8 | O=C(O)C1(C(=O)O)CCC1.[NH2-].[NH2-].[Pt+2] [Carboplatin] (1 nM) | 101 | 109 | 96.6 | 100 | 97.5 | 100 | 99 | 103 | 98.9 | 115 | 101 | 101 | 108 | 97 | 104 | 98.8 | 103 | 95.2 | 89.3
9 | COc1cc2c(Oc3ccc4[nH]c(C)cc4c3F)ncnc2cc1OCCCN1CCCC1 [Cediranib] (0.1 nM) | 93.3 | 107 | 101 | 99.9 | 103 | 109 | 101 | 93.4 | 113 | 113 | 104 | 94.8 | 100 | 101 | 109 | 103 | 98.1 | 110 | 106
10 | COc1cc2c(Oc3ccc4[nH]c(C)cc4c3F)ncnc2cc1OCCCN1CCCC1 [Cediranib] (1 nM) | 97.8 | 99.7 | 109 | 102 | 98.6 | 106 | 101 | 93.9 | 104 | 131 | 94.7 | 97 | 104 | 105 | 101 | 108 | 106 | 113 | 99.8
11 | Cc1ccc(-c2cc(C(F)(F)F)nn2-c2ccc(S(N)(=O)=O)cc2)cc1 [Celecoxib] (1 nM) | 95.1 | 111 | 104 | 95.5 | 97.4 | 102 | 104 | 93.6 | 96.5 | 88.1 | 95.9 | 105 | 98.8 | 96.8 | 98 | 102 | 96.8 | 102 | 102
12 | O=C(/C=C/c1cccnc1)NCCCCC1CCN(C(=O)c2ccccc2)CC1 [Daporinad] (0.1 nM) | 101 | 102 | 101 | 103 | 98.4 | 101 | 98.4 | 108 | 106 | 112 | 101 | 96.3 | 102 | 101 | 101 | 109 | 94 | 96.9 | 108
13 | O=C(/C=C/c1cccnc1)NCCCCC1CCN(C(=O)c2ccccc2)CC1 [Daporinad] (1 nM) | 105 | 88.8 | 103 | 105 | 98.1 | 101 | 98 | 106 | 106 | 114 | 101 | 97.1 | 106 | 105 | 101 | 87.2 | 106 | 103 | 113
14 | Nc1ncn([C@H]2C[C@H](O)[C@@H](CO)O2)c(=O)n1 [Decitabine] (1 nM) | 96.5 | 110 | 99 | 102 | 98.2 | 92.1 | 90 | 99.7 | 99.1 | 76.5 | 101 | 94.3 | 92.4 | 97 | 104 | 96.4 | 90.8 | 102 | 96.2
15 | Nc1ccccc1NC(=O)c1ccc(CNC(=O)OCc2cccnc2)cc1 [Entinostat] (1 nM) | 102 | 114 | 106 | 99.7 | 102 | 98.2 | 103 | 95.6 | 92.8 | 85.2 | 99.2 | 98.8 | 98.1 | 99.2 | 102 | 97.2 | 103 | 106 | 102
16 | Nc1nc(F)nc2c1ncn2[C@@H]1O[C@H](CO)[C@@H](O)[C@@H]1O [Fludarabine] (1 nM) | 120 | 112 | 101 | 99.8 | 103 | 97.2 | 101 | 102 | 111 | 93.1 | 99.3 | 110 | 113 | 98.4 | 99.9 | 109 | 110 | 103 | 111
17 | CC[C@H](Nc1ncnc2[nH]cnc12)c1nc2cccc(F)c2c(=O)n1-c1ccccc1 [GS-1101] (1 nM) | 92.5 | 88.3 | 95.1 | 100 | 88.3 | 84.8 | 102 | 96.3 | 92 | 101 | 91.6 | 96.8 | 79.2 | 90.1 | 98.5 | 85.4 | 89.9 | 93.4 | 88
18 | CC[C@H](Nc1ncnc2[nH]cnc12)c1nc2cccc(F)c2c(=O)n1-c1ccccc1 [GS-1101] (10 nM) | 88.3 | 89.1 | 95.3 | 100 | 94.2 | 87 | 92.7 | 112 | 93.7 | 122 | 92.3 | 97.4 | 89.7 | 93.2 | 93.2 | 87.8 | 93.2 | 99.8 | 65
19 | C=CC(=O)N1CCC[C@@H](n2nc(-c3ccc(Oc4ccccc4)cc3)c3c(N)ncnc32)C1 [Ibrutinib] (0.1 nM) | 96.8 | 110 | 100 | 102 | 93.6 | 101 | 102 | 104 | 101 | 99.3 | 97.3 | 104 | 109 | 97.1 | 102 | 106 | 96.3 | 103 | 109
20 | C=CC(=O)N1CCC[C@@H](n2nc(-c3ccc(Oc4ccccc4)cc3)c3c(N)ncnc32)C1 [Ibrutinib] (1 nM) | 98.2 | 107 | 98.3 | 106 | 98.2 | 114 | 97.8 | 102 | 103 | 102 | 95.3 | 99.3 | 111 | 97.7 | 105 | 108 | 106 | 105 | 98.1
21 | O=C(Cc1ccc(-c2ccc(OCCN3CCOCC3)cc2)cn1)NCc1ccccc1 [KX2-391] (1 nM) | 102 | 113 | 95.2 | 101 | 100 | 107 | 105 | 83.3 | 105 | 107 | 99.4 | 103 | 121 | 97.2 | 107 | 106 | 105 | 102 | 120
